Results as given in patent US7632845B2, “Phenyl quinolines and their use as estrogenic agents” (Wyeth, priority 2003, dated 2009).

Tests used:
[1] = molecular target: T1, ERβ (Homo sapiens, UniProt Q92731); assay: Competition with [3H]-17β-estradiol for ERβ ligand binding domain; details: for IC50: crude E. coli lysate expressing human ERβ LBD (D, E, & F), 2 nM [3H]-17β-estradiol, 5-15 hours at room temperature; for α/β: receptor selectivity, ratio ERα IC50 / ERβ IC50
T1 construct: made in house; host or cells: E. coli
T1 sequence (Q92731 264-498 limits assumed): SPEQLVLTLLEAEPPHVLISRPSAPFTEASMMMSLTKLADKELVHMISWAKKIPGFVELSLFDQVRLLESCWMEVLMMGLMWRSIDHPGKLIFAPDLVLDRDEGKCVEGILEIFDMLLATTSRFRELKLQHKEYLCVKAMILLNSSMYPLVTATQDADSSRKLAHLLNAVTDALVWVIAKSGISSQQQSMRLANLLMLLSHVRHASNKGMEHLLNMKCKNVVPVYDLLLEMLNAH
Experimental: (§1) Representative examples of the invention were evaluated for their ability to compete with 17β-estradiol for both ERα and ERβ. This test procedure provides the methodology for one to determine whether a particular compound binds to the estrogen receptor (and is therefore “estrogenic”) and whether there is selectivity for ERα or ERβ. […] 17β-estradiol is included as a standard reference for compalison. The procedure used is briefly described below. A crude lysate of E. coli expressing the estrogen receptor ligand binding domains (D, E, & F) of human ERα or ERβ was prepared. Both receptors and compounds were diluted in 1× Dulbecco's PBS (DPBS) supplemented with 1 mM EDTA. Using a high binding masked microtiter plate, 100 uL of receptor (1 uG/well) was combined with 2 nM [^3H]-17β-estradiol and various concentrations of compound. After between 5 and 15 hours at room temperature, the plates were washed with DPBS/1 mM EDTA and bound radioactivity determined by liquid scintillation counting.

[2] = molecular target: T2, ERα (Homo sapiens, UniProt P03372); assay: Competition with [3H]-17β-estradiol for ERα ligand binding domain; details: crude E. coli lysate expressing human ERα LBD (D, E, & F); 2 nM [3H]-17β-estradiol; 5-15 hours at room temperature
T2 construct: made in house; host or cells: E. coli
T2 sequence (P03372 311-547 limits assumed): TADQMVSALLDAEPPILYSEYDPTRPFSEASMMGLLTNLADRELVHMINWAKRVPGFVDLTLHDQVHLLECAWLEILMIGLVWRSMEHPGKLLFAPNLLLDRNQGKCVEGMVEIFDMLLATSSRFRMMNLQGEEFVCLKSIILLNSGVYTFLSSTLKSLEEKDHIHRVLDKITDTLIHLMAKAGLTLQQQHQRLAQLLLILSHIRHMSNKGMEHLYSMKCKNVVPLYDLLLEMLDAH
Experimental: as §1

Row | IC50 [1] | α/β [1] | IC50 [2] | Compound
1 | 4.6 nM | 46 | 213 nM | Oc1ccc(-c2cc(Cl)c3cc(O)ccc3n2)cc1 [Cpd 5a, 4-Chloro-2-(4-hydroxyphenyl)quinolin-6-ol]
2 | – | – | 246 nM | Oc1ccc2nc(-c3ccc(O)c(F)c3)cc(Cl)c2c1 [Cpd 5b, 4-Chloro-2-(3-fluoro-4-hydroxyphenyl)quinolin-6-ol]
3 | 3.4 nM | – | 283 nM | Oc1ccc2nc(-c3ccc(O)c(F)c3)cc(Br)c2c1 [Cpd 6b, 4-Bromo-2-(3-fluoro-4-hydroxyphenyl)quinolin-6-ol]
4 | 42 nM | 23 | 976 nM | Oc1ccc2nc(-c3cc(F)c(O)c(F)c3)cc(Br)c2c1 [Cpd 6c, 4-Bromo-2-(3,5-difluoro-4-hydroxyphenyl)quinolin-6-ol]
5 | 2.4 nM | 43 | 103 nM | Oc1ccc(-c2cc(I)c3cc(O)ccc3n2)cc1 [Cpd 8a, 2-(4-Hydroxyphenyl)-4-iodoquinolin-6-ol]
6 | 5 nM | 73 | 365 nM | Oc1ccc2nc(-c3ccc(O)c(F)c3)cc(I)c2c1 [Cpd 8b, 2-(3-Fluoro-4-hydroxyphenyl)-4-iodoquinolin-6-ol]
7 | 37 nM | 12 | 458 nM | C=Cc1cc(-c2ccc(O)c(F)c2)nc2ccc(O)cc12 [Cpd 11b, 2-(3-Fluoro-4-hydroxyphenyl)-4-vinylquinolin-6-ol]
8 | 61 nM | 14 | 837 nM | CCc1cc(-c2ccc(O)cc2)nc2ccc(O)cc12 [Cpd 12a, 4-Ethyl-2-(4-hydroxyphenyl)quinolin-6-ol]
9 | 40 nM | 26 | 1030 nM | CCc1cc(-c2ccc(O)c(F)c2)nc2ccc(O)cc12 [Cpd 12b, 4-Ethyl-2-(3-fluoro-4-hydroxyphenyl)quinolin-6-ol]
10 | 76 nM | 20 | 1500 nM | C#Cc1cc(-c2ccc(O)cc2)nc2ccc(O)cc12 [Cpd 14a, 4-Ethynyl-2-(4-hydroxyphenyl)quinolin-6-ol]
11 | 32 nM | 106 | 3410 nM | C#Cc1cc(-c2ccc(O)c(F)c2)nc2ccc(O)cc12 [Cpd 14b, 4-Ethynyl-2-(3-fluoro-4-hydroxyphenyl)quinolin-6-ol]
12 | 195 nM | 62 | 12000 nM | Oc1ccc2nc(-c3ccc(O)c(F)c3)cc(C#Cc3ccccc3)c2c1 [Cpd 15, 2-(3-Fluoro-4-hydroxyphenyl)-4-(phenylethynyl)quinolin-6-ol]
13 | 211 nM | 14 | 2940 nM | CC(=O)c1cc(-c2ccc(O)cc2)nc2ccc(O)cc12 [Cpd 16a, 4-Acetyl-2-(4-hydroxyphenyl)quinolin-6-ol]
14 | – | – | 3370 nM | CC(=O)c1cc(-c2ccc(O)c(F)c2)nc2ccc(O)cc12 [Cpd 16b, 4-Acetyl-2-(3-fluoro-4-hydroxyphenyl)quinolin-6-ol]
15 | > 5000 nM | – | > 5000 nM | CC(O)c1cc(-c2ccc(O)cc2)nc2ccc(O)cc12 (centres unmarked) [Cpd 17a, 4-(1-Hydroxyethyl)-2-(4-hydroxyphenyl)quinolin-6-ol]
16 | 208 nM | 10 | 2160 nM | Oc1ccc2nc(-c3ccc(O)c(F)c3)cc(-c3nccs3)c2c1 [Cpd 18, 2-(3-Fluoro-4-hydroxyphenyl)-4-thiazol-2-yl-quinolin-6-ol]
17 | 128 nM | 11 | 1380 nM | Oc1ccc2nc(-c3ccc(O)c(F)c3)cc(-c3ccccc3)c2c1 [Cpd 20, 2-(3-Fluoro-4-hydroxyphenyl)-4-phenylquinolin-6-ol]
18 | 112 nM | 26 | 2920 nM | Cc1ccc(-c2cc(-c3ccc(O)c(F)c3)nc3ccc(O)cc23)cc1 [Cpd 21, 2-(3-Fluoro-4-hydroxyphenyl)-4-(4-methylphenyl)quinolin-6-ol]

Row | IC50 [1] | α/β [1] | IC50 [2] | Compound
19 | 33 nM | 18 | 591 nM | Oc1ccc2nc(-c3ccc(O)c(F)c3)cc(-c3ccc(F)cc3)c2c1 [Cpd 22, 2-(3-Fluoro-4-hydroxyphenyl)-4-(4-fluorophenyl)quinolin-6-ol]
20 | 146 nM | >6 | > 1000 nM | Oc1ccc2nc(-c3ccc(O)c(F)c3)cc(-c3ccc(Cl)cc3)c2c1 [Cpd 23, 4-(4-Chlorophenyl)-2-(3-fluoro-4-hydroxyphenyl)quinolin-6-ol]
21 | 53 nM | 34 | 1810 nM | N#Cc1ccc(-c2cc(-c3ccc(O)c(F)c3)nc3ccc(O)cc23)cc1 [Cpd 24, 4-(4-Cyanophenyl)-2-(3-fluoro-4-hydroxyphenyl)quinolin-6-ol]
22 | > 5000 nM | – | > 5000 nM | Oc1ccc2nc(-c3ccc(O)c(F)c3)cc(-c3ccc(C(F)(F)F)cc3)c2c1 [Cpd 25, 2-(3-Fluoro-4-hydroxyphenyl)-4-(4-trifluoromethylphenyl)quinolin-6-ol]
23 | 75 nM | 12 | 868 nM | Oc1ccc2nc(-c3ccc(O)c(F)c3)cc(-c3ccsc3)c2c1 [Cpd 26, 2-(3-Fluoro-4-hydroxyphenyl)-4-thiophen-3-yl-quinolin-6-ol]
24 | 78 nM | >12 | > 1000 nM | Oc1ccc2nc(-c3ccc(O)c(F)c3)cc(-c3ccncc3)c2c1 [Cpd 27, 2-(3-Fluoro-4-hydroxyphenyl)-4-(4-pyridinyl)quinolin-6-ol]
25 | 968 nM | 3 | 3310 nM | Oc1ccc2nc(-c3ccc(O)c(F)c3)cc(-c3cncnc3)c2c1 [Cpd 28, 2-(3-Fluoro-4-hydroxyphenyl)-4-(5-pyrimidinyl)quinolin-6-ol]
26 | 38 nM | 22 | 840 nM | Oc1ccc(-c2ccc3c(Cl)c(O)ccc3n2)cc1 [Cpd 31, 5-Chloro-2-(4-hydroxyphenyl)quinolin-6-ol]
27 | 90 nM | 13 | 1190 nM | Oc1ccc(-c2ccc3c(Br)c(O)ccc3n2)cc1 [Cpd 32, 5-Bromo-2-(4-hydroxyphenyl)quinolin-6-ol]
28 | 1.25 nM | 62 | 78 nM | Oc1ccc(-c2nc3ccc(O)cc3c(Br)c2Cl)cc1 [Cpd 35a, 4-Bromo-3-chloro-2-(4-hydroxyphenyl)quinolin-6-ol]
29 | 3.7 nM | 24 | 90 nM | Oc1ccc2nc(-c3ccc(O)c(F)c3)c(Cl)c(Br)c2c1 [Cpd 35b, 4-Bromo-3-chloro-2-(3-fluoro-4-hydroxyphenyl)quinolin-6-ol]
30 | 244 nM | 1.4 | 340 nM | Oc1ccc(-c2nc3ccc(O)cc3c(-c3ccc(F)cc3)c2Cl)cc1 [Cpd 36, 3-Chloro-4-(4-fluorophenyl)-2-(4-hydroxyphenyl)quinolin-6-ol]
31 | 26 nM | 12 | 318 nM | N#Cc1c(Cl)c(-c2ccc(O)c(F)c2)nc2ccc(O)cc12 [Cpd 37, 3-Chloro-4-cyano-2-(3-fluoro-4-hydroxyphenyl)quinolin-6-ol]
32 | 0.54 nM | 57 | 31 nM | Oc1cc(Br)c2nc(-c3ccc(O)c(F)c3)cc(Cl)c2c1 [Cpd 44, 8-Bromo-4-chloro-2-(3-fluoro-4-hydroxyphenyl)-quinolin-6-ol]
33 | 0.35 nM | 53 | 18.7 nM | Oc1cc(Cl)c2nc(-c3ccc(O)c(F)c3)cc(Br)c2c1 [Cpd 45a, 4-Bromo-8-chloro-2-(3-fluoro-4-hydroxyphenyl)quinolin-6-ol]
34 | 1.7 nM | 7 | 11.6 nM | Oc1cc(Br)c2nc(-c3ccc(O)c(F)c3)cc(Br)c2c1 [Cpd 45b, 4,8-Dibromo-2-(3-fluoro-4-hydroxyphenyl)quinolin-6-ol]
35 | 1.7 nM | 113 | 192 nM | N#Cc1cc(-c2ccc(O)c(F)c2)nc2c(Cl)cc(O)cc12 [Cpd 47, 8-Chloro-4-cyano-2-(3-fluoro-4-hydroxyphenyl)quinolin-6-ol]
36 | 0.75 nM | 50 | 37 nM | C#Cc1cc(-c2ccc(O)c(F)c2)nc2c(Cl)cc(O)cc12 [Cpd 48, 8-Chloro-4-ethynyl-2-(3-fluoro-4-hydroxyphenyl)quinolin-6-ol]

Row | Compound | IC50 [1] | α/β [1] | IC50 [2]
37 | CC(=O)Oc1ccc2nc(-c3ccc(OC(C)=O)c(F)c3)cc(Br)c2c1 [Cpd 7, 6-Acetoxy-4-bromo-2-(3-fluoro-4-acetoxyphenyl)quinoline] | 198 nM | >25 | > 5000 nM
38 | C[Si](C)(C)C#Cc1cc(-c2ccc(O)cc2)nc2ccc(O)cc12 [Cpd 13a, 2-(4-Hydroxyphenyl)-4-[(trimethylsilyl)ethynyl]quinolin-6-ol] | 161 nM | 9 | 1510 nM
39 | C[Si](C)(C)C#Cc1cc(-c2ccc(O)c(F)c2)nc2ccc(O)cc12 [Cpd 13b, 2-(3-Fluoro-4-hydroxyphenyl)-4-[(trimethylsilyl)ethynyl]quinolin-6-ol] | 153 nM | 11 | 1690 nM
